Format in all cases: cell-based
Test [1] addresses T1, human prostanoid EP2 receptor (Homo sapiens, UniProt P43116).
T1 construct: expressed in transfected cells
Kind of test: FLIPR Ca2+ signaling antagonist assay, EP2 receptor stable cell line. The following applies: HEK-293 EBNA stable cells with chimeric Gqs, standard agonist PGE2; NA = inactive (no antagonism or Kb≧10,000 nM). As for the experimental part: (§1) The above compounds were tested for PG antagonist activity as follows using human recombinant prostanoid receptor (DP1, EP1-4, FP, IP and TP) stable cell lines:
(§2) In order to measure the response of Gs and Gi coupled prostanoid receptors as a Ca^2+ signal, chimeric G protein cDNAs were used. Stable cell lines over-expressing human prostanoid DP1, EP1-4, FP, IP, and TP receptors were established as follows:
(§3) Briefly, human prostanoid DP1, EP2, and EP4 receptor cDNAs were co-transfected with chimeric Gqs cDNA containing a haemagglutanin (HA) epitope; human prostanoid EP3 receptors were co-transfected with chimeric Gqi-HA; human EP1, FP, IP, and TP receptor cDNAs were expressed with no exogenous G-proteins. Gqs and Gqi chimeric cDNAs (Molecular Devices, Sunnyvale, Calif., U.S.A.), as well as cDNAs of prostanoid receptors, were cloned into a pCEP4 vector with a hygromycin B selection marker. Transfection into HEK-293 EBNA (Epstein-Barr virus nuclear antigen) cells was achieved by the FuGENE 6 transfection Reagent (Roche Applied Science, Indianapolis, Ind., USA). Stable transfectants were selected according to hygromycin resistance. Because Gqs and Gqi contained an HA epitope, G-protein expression was detected by Western blotting analysis using anti-mouse HA monoclonal antibody and horseradish peroxidase (HRP)-conjugated secondary antibody, while functional expression of prostanoid receptors was detected by FLIPR screening (Matias et al., 2004). These stable cell lines were validated using previously published antagonists at 10 μM against serial dilutions of standard agonists by FLIPR functional assays for Ca^2+ Signaling (as described below).
(§4) Ca^2+ signaling studies were performed using a FLIPR TETRA system (Molecular Devices, Sunnyvale, Calif., USA) in the 384-format. This is a high-throughput instrument for cell-based assays to monitor Ca^2+ signaling associated with GPCRs and ion channels. Cells were seeded at a density of 5×10^4 cells/well in BioCoat poly-D-lysine coated, black wall, clear bottom 384-well plates (BD Biosciences, Franklin lakes, NJ, USA) and allowed to attach overnight in an incubator at 37° C. The cells were then washed twice with HBSS-HEPES buffer (Hanks' balanced salt solution without bicarbonate and phenol red, 20 mM HEPES, pH 7.4) using an ELx405 Select CW Microplate Washer (BioTek, Winooski, Vt., USA). After 60 min of dye-loading in the dark using the Ca^2+-sensitive dye Fluo-4AM (Invitrogen, Carlsbad, Calif., USA), at a final concentration of 2×10^−6M, the plates were washed 4 times with HBSS-HEPES buffer to remove excess dye and leaving 50 μl of buffer in each well. The plates were then placed in the FLIPR TETRA instrument and allowed to equilibrate at 37° C. AGN-211377 was added in a 25 μl volume to each well to give final concentrations of 0.1 μM, 0.3 μM, 1 μM, 3 μM, 10 μM, and 30 μM; or 0.067 μM, 0.1 μM, 0.2 μM, 0.3 μM, 0.67 μM, and 1 μM for cells over-expressing TP receptors. After 4.5 minutes, a 7-point serial dilution of the standard agonist for the corresponding receptor, in a 25 μl volume was injected at the final concentrations from 10^−11M to 10^−5M in 10-fold serial dilution increments for cells expressing human recombinant DP1, EP1, EP2, EP3, EP4, FP, and IP receptors. The dose range for the standard agonist for human recombinant TP receptors was from 10^−12M to 10^−6M. HBSS-HEPES buffer was used as the negative control for the standard agonists. Cells were excited with LED (light emitting diode) excitation at 470-495 nm and emission was measured through an emission filter at 515-575 nm. Assay plates were read for 3.5 minutes using the FLIPR^TETRA. The peak increase in fluorescence intensity was recorded for each well. On each plate, negative controls, dose response of positive controls, and co-treatments of antagonist-agonist for each dose were in triplicates. Standard agonists were as follows: DP=BW 245C, EP1-EP4=PGE2, FP=17-phenyl-PGF2α, IP=Cicaprost, and TP=U-46619. […]

Test [2] has as its target T2, human prostanoid DP1 receptor (Homo sapiens, UniProt Q13258).
T2 construct: expressed in transfected cells
T2 sequence (Q13258 1-359): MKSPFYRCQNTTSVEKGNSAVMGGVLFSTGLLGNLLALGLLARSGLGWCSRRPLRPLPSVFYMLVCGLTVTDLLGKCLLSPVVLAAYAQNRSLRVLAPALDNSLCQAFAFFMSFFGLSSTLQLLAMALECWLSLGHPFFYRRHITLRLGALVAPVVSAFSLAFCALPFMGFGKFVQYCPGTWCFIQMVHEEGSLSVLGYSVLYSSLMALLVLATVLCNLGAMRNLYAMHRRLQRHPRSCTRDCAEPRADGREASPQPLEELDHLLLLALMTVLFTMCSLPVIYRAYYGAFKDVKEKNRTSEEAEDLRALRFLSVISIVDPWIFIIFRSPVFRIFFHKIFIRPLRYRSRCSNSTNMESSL
Kind of test: FLIPR Ca2+ signaling antagonist assay, DP1 receptor stable cell line. The settings on record: HEK-293 EBNA stable cells with chimeric Gqs, standard agonist BW 245C; NA = inactive (no antagonism or Kb≧10,000 nM). As for the experimental part:
as §1, §2, §3, §4

Test [3] concerns the target T3, human prostanoid EP1 receptor (Homo sapiens, UniProt P34995).
T3 construct: expressed in transfected cells
T3 sequence (P34995 1-402): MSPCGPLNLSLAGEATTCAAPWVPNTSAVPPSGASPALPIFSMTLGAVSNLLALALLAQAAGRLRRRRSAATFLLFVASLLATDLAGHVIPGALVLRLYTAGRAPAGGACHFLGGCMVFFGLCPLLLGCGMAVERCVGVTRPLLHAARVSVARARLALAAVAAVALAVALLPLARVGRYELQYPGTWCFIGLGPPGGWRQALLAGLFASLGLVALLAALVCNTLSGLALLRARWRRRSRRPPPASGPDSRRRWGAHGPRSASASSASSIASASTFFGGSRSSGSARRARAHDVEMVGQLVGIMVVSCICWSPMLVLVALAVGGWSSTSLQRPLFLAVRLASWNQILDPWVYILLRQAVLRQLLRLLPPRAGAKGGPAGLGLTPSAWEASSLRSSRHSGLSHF
Kind of test: FLIPR Ca2+ signaling antagonist assay, EP1 receptor stable cell line. The settings on record: HEK-293 EBNA stable cells, standard agonist PGE2; NA = inactive (no antagonism or Kb≧10,000 nM). As to the method: as §1, §2, §3, §4

The target in test [4] is T4, human prostanoid EP4 receptor (Homo sapiens, UniProt P35408).
T4 construct: expressed in transfected cells
Kind of test: FLIPR Ca2+ signaling antagonist assay, EP4 receptor stable cell line. The settings on record: HEK-293 EBNA stable cells with chimeric Gqs, standard agonist PGE2; NA = inactive (no antagonism or Kb≧10,000 nM). As to the method: as §1, §2, §3, §4

The target in test [5] is T5, human prostanoid IP receptor (Homo sapiens, UniProt P43119).
T5 construct: expressed in transfected cells
Kind of test: FLIPR Ca2+ signaling antagonist assay, IP receptor stable cell line. The following applies: HEK-293 EBNA stable cells, standard agonist Cicaprost; NA = inactive (no antagonism or Kb≧10,000 nM). As for the experimental part:
as §1, §2, §3, §4

Test [6] addresses T6, human prostanoid TP receptor (Homo sapiens, UniProt P21731).
T6 construct: expressed in transfected cells
T6 sequence (P21731 1-343): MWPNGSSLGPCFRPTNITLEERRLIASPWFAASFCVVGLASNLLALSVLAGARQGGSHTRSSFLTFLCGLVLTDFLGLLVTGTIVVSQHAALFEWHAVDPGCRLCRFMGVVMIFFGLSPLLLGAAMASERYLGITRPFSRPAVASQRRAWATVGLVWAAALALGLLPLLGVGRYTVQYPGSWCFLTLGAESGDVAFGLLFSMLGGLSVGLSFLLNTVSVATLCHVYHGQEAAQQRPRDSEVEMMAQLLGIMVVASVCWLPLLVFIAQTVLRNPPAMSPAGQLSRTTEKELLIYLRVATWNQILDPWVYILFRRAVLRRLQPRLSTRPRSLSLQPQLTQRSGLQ
Kind of test: FLIPR Ca2+ signaling antagonist assay, TP receptor stable cell line. The following applies: HEK-293 EBNA stable cells, standard agonist U-46619; NA = inactive (no antagonism or Kb≧10,000 nM). As for the experimental part: as §1, §2, §3, §4

Test [7] addresses T7, human prostanoid FP receptor (Homo sapiens, UniProt P43088).
T7 construct: expressed in transfected cells
Kind of test: FLIPR Ca2+ signaling antagonist assay, FP receptor stable cell line. The settings on record: HEK-293 EBNA stable cells, standard agonist 17-phenyl-PGF2α; NA = inactive (no antagonism or Kb≧10,000 nM). As to the method: as §1, §2, §3, §4

T4 sequence (P35408 whole entry): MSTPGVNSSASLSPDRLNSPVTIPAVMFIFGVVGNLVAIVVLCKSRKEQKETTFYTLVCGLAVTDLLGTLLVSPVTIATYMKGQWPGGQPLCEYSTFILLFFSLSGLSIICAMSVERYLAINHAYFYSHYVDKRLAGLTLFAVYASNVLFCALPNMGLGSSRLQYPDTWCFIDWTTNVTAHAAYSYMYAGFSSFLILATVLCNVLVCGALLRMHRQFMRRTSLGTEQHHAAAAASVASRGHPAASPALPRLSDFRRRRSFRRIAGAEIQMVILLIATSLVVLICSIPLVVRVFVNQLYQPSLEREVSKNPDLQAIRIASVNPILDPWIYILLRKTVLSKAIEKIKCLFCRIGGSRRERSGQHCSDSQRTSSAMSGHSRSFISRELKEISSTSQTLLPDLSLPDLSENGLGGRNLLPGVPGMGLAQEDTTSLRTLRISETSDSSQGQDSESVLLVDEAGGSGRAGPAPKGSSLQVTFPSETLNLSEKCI
T7 sequence (P43088 whole entry): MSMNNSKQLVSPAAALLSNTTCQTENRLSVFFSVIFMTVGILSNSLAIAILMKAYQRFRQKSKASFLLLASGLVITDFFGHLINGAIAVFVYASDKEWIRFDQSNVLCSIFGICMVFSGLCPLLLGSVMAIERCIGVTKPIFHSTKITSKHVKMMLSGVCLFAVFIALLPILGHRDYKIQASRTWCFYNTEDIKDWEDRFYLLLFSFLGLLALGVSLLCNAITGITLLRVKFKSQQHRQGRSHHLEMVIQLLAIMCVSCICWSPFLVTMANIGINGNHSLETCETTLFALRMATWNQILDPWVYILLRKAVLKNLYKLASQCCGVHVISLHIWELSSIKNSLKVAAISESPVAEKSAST
T1 sequence (P43116 whole entry): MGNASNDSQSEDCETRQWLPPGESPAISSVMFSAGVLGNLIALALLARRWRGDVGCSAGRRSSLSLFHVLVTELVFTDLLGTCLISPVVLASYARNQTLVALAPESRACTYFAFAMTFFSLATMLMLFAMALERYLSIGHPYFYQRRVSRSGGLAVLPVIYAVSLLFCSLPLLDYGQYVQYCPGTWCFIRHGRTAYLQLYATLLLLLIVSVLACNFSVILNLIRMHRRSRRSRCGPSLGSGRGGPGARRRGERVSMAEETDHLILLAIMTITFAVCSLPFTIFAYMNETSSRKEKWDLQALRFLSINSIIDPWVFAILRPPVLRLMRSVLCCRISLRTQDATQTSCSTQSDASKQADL
T5 sequence (P43119 whole entry): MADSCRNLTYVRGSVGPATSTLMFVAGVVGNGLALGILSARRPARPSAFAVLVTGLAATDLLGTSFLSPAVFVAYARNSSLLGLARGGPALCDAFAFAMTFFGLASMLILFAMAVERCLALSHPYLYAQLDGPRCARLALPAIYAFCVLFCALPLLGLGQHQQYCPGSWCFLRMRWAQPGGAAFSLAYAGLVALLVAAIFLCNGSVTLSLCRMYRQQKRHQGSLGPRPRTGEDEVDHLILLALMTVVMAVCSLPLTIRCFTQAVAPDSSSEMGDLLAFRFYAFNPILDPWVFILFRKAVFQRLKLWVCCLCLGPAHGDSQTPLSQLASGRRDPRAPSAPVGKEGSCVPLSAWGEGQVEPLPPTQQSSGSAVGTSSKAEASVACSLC

The Kb is the equilibrium dissociation constant of an antagonist, usually derived from a functional assay. `Cc1cc(CCC(=O)O)nn1Cc1cc(Cl)ccc1OCC1CCCC1` [Example 4a, 3-[1-(5-Chloro-2-cyclopentylmethoxybenzyl)-5-methyl-1H-pyrazol-3-yl]-propionic acid]: the antagonist equilibrium constant (Kb) in test [1] was determined as 4.5 µM; in test [2], 280 nM; in test [3], 80 nM; in test [4] it was 180 nM; in test [5] it was 1.2 µM; in test [6], 3 nM. Also, in test [7], the antagonist dissociation constant (Kb) came out at 110 nM.
`Cc1cc(CCC(=O)O)nn1Cc1cc(C(F)(F)F)ccc1OCC1CCCC1` [Example 5, 3-[1-(2-Cyclopentylmethoxy-5-trifluoromethylbenzyl)-5-methyl-1H-pyrazol-3-yl]-propionic acid]: the antagonist dissociation constant (Kb) was 3.4 µM in test [1]; 220 nM in test [2]; 24 nM in test [3]; 240 nM in test [4]; 6.8 µM in test [5]; 7 nM in test [6]. This compound returned an antagonist dissociation constant (Kb) in test [7] of 63 nM.

(Values after patent US20140121258A1, “COMPOUNDS ACT AT MULTIPLE PROSTAGLANDIN RECEPTORS GIVING A GENERAL ANTI-INFLAMMATORY RESPONSE” (ALLERGAN, INC., priority 2010, published 2014).)
